# Experimental data from patent US6448399B1, “Fused heteroaromatic glucokinase activators” (Hoffmann-La Roche Inc., priority 2000, dated 2002).
# Tested on: C57BL/6J mice
# Test: Glucokinase activator in vivo screen (blood glucose after oral dosing)
# Details: administered orally, 50 mg/kg, active = significant (p≦0.05) decrease in blood glucose vs vehicle at two consecutive time points
# Method: Glucokinase Activator in vivo Screen Protocol
# C57BL/6J mice are orally dosed via gavage with Glucokinase (GK) activator at 50 mg/kg body weight following a two hour fasting period. Blood glucose determinations are made five times during the six hour post-dose study period.
# Mice (n=6) are weighed and fasted for a two hour period prior to oral treatment. GK activators are formulated at 6.76 mg/ml in Gelucire vehicle (Ethanol:Gelucire44/14:PEG400q.s. 4:66:30 v/w/v. Mice are dosed orally with 7.5 μL formulation per gram of body weight to equal a 50 mg/kg dose. Immediately prior to dosing, a pre dose (time zero) blood glucose reading is acquired by snipping off a small portion of the animals tail (˜1 mm) and collecting 15 μL blood into a heparinized capillary tube for analysis. Following GK activator administration, additional blood glucose readings are taken at 1, 2, 4, and 6 hours post dose from the same tail wound. Results are interpreted by comparing the mean blood glucose values of six vehicle treated mice with six GK activator treated mice over the six hour study duration.
row,Compound,glucokinase activator in vivo activity
1,"CS(=O)(=O)c1ccc([C@@H](CC2CCCC2)C(=O)Nc2nc3ccccc3s2)cc1Cl [Example 19, N-Benzothiazol-2-yl-2(R)-(3-chloro-4-methanesulfonyl-phenyl)-3-cyclopentyl-propionamide]",excellent glucokinase activator in vivo activity
2,"CS(=O)(=O)c1ccc(C(CC2CCCC2)C(=O)Nc2ccc3ccccc3n2)cc1Cl (stereo not drawn) [Example 22, 2-(3-Chloro-4-methanesulfonyl-phenyl)-3-cyclopentyl-N-quinolin-2-yl-propionamide]",excellent glucokinase activator in vivo activity
3,"CS(=O)(=O)c1ccc(C(CC2CCCC2)C(=O)Nc2nc3ccccc3[nH]2)cc1Cl (stereo not drawn) [Example 20, N-(1H-Benzoimidazol-2-yl)-2-(3-chloro-4-methanesulfonyl-phenyl)-3-cyclopentyl-propionamide]",excellent glucokinase activator in vivo activity
